In patent US20230149373A1, “USE OF BROMODOMAIN INHIBITORS FOR TREATMENT OF HUNTINGTON'S DISEASE” (RUMI SCIENTIFIC HOLDINGS, INC., priority 2020, published 2023):
Entries after “also recorded” stand apart in the source; their conditions may differ.

Assays:
Format in all cases: cell-based, human
[1] = system: HD-56CAG neuruloids; test: HD neuruloid phenotype reversal (AI-scored phenotypic rescue); settings: for rescue of HD neuruloid phenotype, primary screen images: 10 μM, staining DAPI, PAX6, phalloidin; for rescue of HD neuruloid phenotype, primary screen images / rescue of HD neuruloids to the WT configuration: qualitative; for rescue of HD neuruloids to the WT configuration: FIG. 10; for hit call in panel of BRD inhibitors (rescue efficacy above and toxicity below threshold): single concentration of 10 μM, 96 well plates, same hit criteria as primary screen
Procedure: Micropatterned cell culture on chips and neuruloid induction: Micropatterned glass coverslips (CYTOOCHIPS Arena A, Arena 500A, Arena EMB A) were first coated with 10 μg ml^−1 recombinant Laminin-521 (BioLamina, LN521-03) diluted in PBS+/+(Gibco) for 3 h at 37° C. Micropatterns were placed face-up onto a Parafilm that was seated in a 10 cm dish, then 800 μl of laminin solution was added to the micropattern. After 3 h at 37° C., the coated micropattern was transferred to a 35 mm dish with 5 ml of PBS+/+. Laminin was removed with six serial dilutions in PBS+/+(dilution 1:4) before two complete washes in PBS+/+. Then the coated micropattern was kept in PBS+/+ at 37° C. Cells were seeded as follows: cells growing in MEF-CM on culture dish were washed once with PBS−/− (Gibco), then treated with accutase (Stem Cell Technologies) for 5 min. Cells were then triturated with a pipette to ensure single cell suspension and accutase was diluted out with 4× HUESM medium supplemented with 20 ng ml^−1 bFGF and ROCK inhibitor, Y27632 (10 μM; Abcam ab120129). Cells were further diluted with the same medium and 5×10^5 (or as indicated) cells in 3.0 ml of medium were placed over the micropattern in a 35-mm tissue culture dish, then incubated at 37° C. After 3 h, the micropattern in a dish was washed once with PBS+/+. For SB+LDN condition: PBS+/+ was replaced with 3 N medium73 with 10 μM SB431542 (Stemgent 04-0010-10) and 0.2 μM LDN 193189 (Stemgent 04-0019). At days 3 and 5, the medium was replaced with the same fresh medium and incubated at 37° C. until day 7. For SB+BM P4 condition (neuruloid), PBS was replaced with HUESM with 10 μM SB431542 and 0.2 μM LDN 193189. At day 3, the medium was replaced with HUESM with 10 μM SB431542 and BM P4 (50 ng ml^−1 or indicated each experiment). At day 5, the medium was replaced with the same fresh medium then incubated until day 7.
(§1) Micropatterned cell culture on 96 well plates and imaging: The micropatterned cell culture on chips and neuruloid induction protocol was used with micropatterned 96 well plates (CYTOOPLATES Arena A, Arena 700). The neuruloid induction was modified so that all steps requiring media changes, cell dispensing as well as washes and incubations for immunofluorescence were performed with a EL406 washer/dispense robot. For cell seeding, a volume of 200 μl cell suspension at a density of 0.18M cells per ml was used. Plate imaging was performed with an InCell Analyzer 2000 high-content imager through a 4× lens.
(§2) A number of libraries consisting of 2080 compounds were screened in 96 well plates with micropatterned glass bottoms. In these plates, each well has around 27 individual neuruloids. During the screen, two plates of WT controls and two plates of HD untreated controls were reserved in order to have enough control data for training the deep neural network for later analysis. Compounds were applied to the test plates at day 0 of differentiation and re-applied at day 3 and day 5 during media change steps. Each compound was applied in a unique well, at a unique concentration of 10 uM. At day 7, plates were fixed and stained for DAPI, PAX6 and Phalloidin. After staining, plates were imaged and individual neuruloids in every well were segmented and labeled before being fed to the specific deep neural network.
Image analysis: image tiles acquired from micropatterned or plate culture experiments were stitched and background-corrected. A foreground mask was created to detect colonies by thresholding the DAPI channel and calculating alpha shapes in respect to colony size. Each detected colony was extracted from the corrected and stitched image.
Deep learning for quantification of phenotypic rescue: Multichannel WT and disease organoid images are split into training (70%) and validation (30%) images. A neural network (NN) is then trained on the training data set. The NN is coded using a machine-learning framework such as Pytorch. […]

[2] = system: WT-20CAG and HD-56CAG neuruloids; test: Neuruloid toxicity (autoencoder-based toxicity score)
Procedure: as §1, §2
Deep learning for quantification of cytotoxicity: An autoencoder based method was used to asses toxicity. These unsupervised neural networks encode data and compress it in a low dimensional latent representation. The unsupervised nature of this machine learning method has the advantage that the autoencoder learns a representation of the data without any additional information about the data (such as that it is derived from wild type or disease cell lines), and is thus unbiased in estimating the toxicity of compounds. The representation of the data in terms of vectors also has the advantage that differences in the wild type and disease phenotype can be removed from the vector space, since this difference is not relevant in determining toxicity. Toxicity was determined in the following way: First, the difference between wild type and disease is removed from the latent space. Then, the distance from the mean vector of the wild type and disease phenotypes is calculated, and compared to the standard deviation of the wild type and disease phenotypes. This distance is defined as the toxicity.

[3] = system: expanded HTT and total HTT; test: HTT levels in HD neuruloid lysates, ELISA-based meso scale discovery (MSD) electrochemiluminescence assay; settings: for HTT levels reduction ability (expanded HTT and total HTT): 1 μM and 5 μM, versus DMSO control
Procedure: We therefore repeated our protocol for the formation of HD neuruloids in two genetic backgrounds: 56CAG and 72CAG and treated with the 5 BRD inhibitors disclosed in FIG. 9 at two concentrations: 1 uM and 5 uM. At the end of the differentiation protocol, neuruloids lysates were frozen and later analyzed for their HTT contents. Both expanded HTT levels and total HTT levels (expanded+regular) were quantified through ELISA-based meso scale discovery (MSD) electrochemiluminescence assay.
HD neuruloids were created in two genetic backgrounds: 56CAG and 72CAG; and treated with the 5 BRD inhibitors disclosed in FIG. 10 at two concentrations: 1 μM and 5 μM. At the end of the differentiation protocol, neuruloid lysates were analyzed for their HTT contents. Both expanded HTT levels and total HTT levels (expanded+regular) were quantified through ELISA-based meso scale discovery (MSD) electrochemiluminescence assay.

[4] = system: HD-56CAG gastruloids; test: HD gastruloid SOX17+ area rescue; settings: 1 μM; 48 hrs CHIR and Activin
Procedure: BRD inhibitors were tested to determine whether they were able to rescue another HD phenotype in human gastruloids. When human embryonic stem cell colonies are stimulated for 48 hrs with CHIR and Activin a primitive-streak like population, SOX17+, is induced at the periphery (see FIG. 12a). Moreover, in HD gastruloids made from the HD-56CAG cells, the SOX17+ domain at the periphery is greatly expanded. This effect is even more pronounced when using a null HTT−/− cell line, which supports the findings that the HD mutation is in fact a loss of function mutation in a developmental context, as it phenocopies the absence of the protein.
Gastruloid induction: Using the protocol for coating micropatterned chips. after the final wash in PBS+/+, 8×10^5 cells were seeded on each coverslip in a defined volume of MEF-CM supplemented with 20 ng/ml bFGF (R&D Systems), 10 μM ROCK inhibitor (Y-27632, Abcam), 1× Penicillin-streptomycin (Thermo Fisher Scientific), 100 μg/ml Normocin (Invivogen) and left unperturbed for 10 minutes to ensure homogenous distribution across the patterns. ROCK inhibitor was removed from the medium 3 hours after seeding and cells were induced the following day with 50 ng/ml BM P4 (R&D Systems), 2 μM IWP2 (Stemgent), 6 μM CHIR99021 (EMD Millipore), 100 ng/ml ACTIVIN (R&D Systems) and small molecule treatments. Samples were fixed 48 hours later and analyzed by immunofluorescence.

[5] = system: HD-56CAG neuruloids; test: HD neuruloid phenotype reversal (AI-scored phenotypic rescue); settings: for potency (EC50) in rescuing HD neuruloids: dose-dependent test of BRD9 inhibitors, FIG. 9A

SMILES	rescue of HD neuruloids to the WT configuration [1]	HTT levels reduction ability (expanded HTT and total HTT) ([3]; 56CAG and 72CAG neuruloids)	SOX17+ area at the periphery of HD gastruloids [4]	potency (EC50) in rescuing HD neuruloids [5]	also measured
CCOC(=O)Nc1cc(-c2ccc(C)c(NS(C)(=O)=O)c2)nn2c(C)nnc12 [Bromosporine]	rescue HD neuruloids to the WT configuration	reduced both expanded HTT and total HTT levels; also recorded: has HTT lowering activity	significant reduction of the SOX17+ area	sub-micromolar	rescue of HD neuruloid phenotype, primary screen images [1]: reversal of the HD phenotype towards the WT configuration; rescue of HD neuruloid phenotype, primary screen images ([1]; listed as bromosporine): rescues the HD neuruloids phenotype; phenotypic rescue ([1]; primary screen, 10 uM, HD neuruloids, AI score 0 = disease, 1 = WT, hit >0.95): 0.98; concentrations at which a toxic response started to occur ([2]; WT and HD-56CAG neuruloids): above 1 μM; toxicity in the window of concentration ([2]; between 0.3 μM and 1 μM): low toxicity; toxicity score ([2]; primary screen, 10 uM, HD neuruloids, toxic signature >3): 1.93; reduction of expanded HTT levels ([3]; 1 μM, 56CAG and 72CAG neuruloids): more than 50%; reduction of expanded HTT levels ([3]; 5 μM, all backgrounds (56CAG and 72CAG neuruloids)): more than 75%; rescue of HD phenotype, hit validation in small-scale experiment ([5]; 0.5 μM, staining SOX10, PAX6, N-CAD, qualitative): rescue of the disorganization induced by the HD gene; also recorded: rescued the HD phenotype; EC50 ([5]; Homo sapiens, dose response, 10 concentrations in triplicates, read-out: EC50 rescuing the neuruloids HD-56CAG phenotype): 0.12 µM; concentration at which fully effective ([5]; dose response, HD neuruloids): around 300 nM
COc1cc(-c2cn(C)c(=O)c3cnccc23)cc(OC)c1CN(C)CC(=O)NCCOCCOCCNc1cccc2c1C(=O)N(C1CCC(=O)NC1=O)C2=O (stereo not shown) [dBRD9]	rescue HD neuruloids to the WT configuration	no HTT reduction ability	significant reduction of the SOX17+ area	sub-micromolar	toxic profile relative to Bromosporine ([2]; dose-dependent test, FIG. 9B): lower than Bromosporine
COc1cc(-c2cn(C)c(=O)c3cnccc23)c(OC)cc1CN(C)C [BI-9564]	rescue HD neuruloids to the WT configuration	no HTT reduction ability		sub-micromolar	hit call in panel of BRD inhibitors (rescue efficacy above and toxicity below threshold) [1]: did not score positively
COc1cc(-c2cn(C)c(=O)c3cnccc23)cc(OC)c1CN(C)C [BI-7273]	rescue HD neuruloids to the WT configuration	no HTT reduction ability	significant reduction of the SOX17+ area	sub-micromolar	hit call in panel of BRD inhibitors (rescue efficacy above and toxicity below threshold) ([1]; listed as B17273): high enough efficacy while keeping a low toxicity and scores positively and hit
CCn1cc(-c2cccc(C(F)(F)F)c2)c2sc(C(=N)NC3CCS(=O)(=O)CC3)cc2c1=O [I-BRD9]	rescue HD neuruloids to the WT configuration			sub-micromolar	
